From PubChem BioAssay (NCI)
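Five concentrations, 48 hours, 96-well plates. The concentration for 50% growth inhibition is given as GI50. TGI: total growth inhibition.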

Key:
Experiment in all cases: NCI-60 cell line screen, 48 h
HOP-92 NSCLC = test system: HOP-92 NSCLC
HCT-116 colon = test system: HCT-116 colon
HL-60(TB) leukemia = test system: HL-60(TB) leukemia
U251 CNS = test system: U251 CNS
SF-539 CNS = test system: SF-539 CNS
EKVX NSCLC = test system: EKVX NSCLC
SK-MEL-28 melanoma = test system: SK-MEL-28 melanoma
LOX IMVI melanoma = test system: LOX IMVI melanoma
NCI-H226 lung = test system: NCI-H226 lung
CAKI-1 renal = test system: CAKI-1 renal
HCC-2998 colon = test system: HCC-2998 colon
HS 578T breast = test system: HS 578T breast
M14 melanoma = test system: M14 melanoma
MCF7 breast = test system: MCF7 breast
NCI/ADR-RES ovarian = test system: NCI/ADR-RES ovarian
HCT-15 colon = test system: HCT-15 colon
SF-295 CNS = test system: SF-295 CNS
UACC-62 melanoma = test system: UACC-62 melanoma
OVCAR-5 ovarian = test system: OVCAR-5 ovarian
NCI-H522 lung = test system: NCI-H522 lung
SN12C renal = test system: SN12C renal
SK-OV-3 ovarian = test system: SK-OV-3 ovarian
PC-3 prostate = test system: PC-3 prostate
786-0 renal = test system: 786-0 renal
OVCAR-8 ovarian = test system: OVCAR-8 ovarian
K-562 leukemia = test system: K-562 leukemia
RPMI-8226 leukemia = test system: RPMI-8226 leukemia
SNB-75 CNS = test system: SNB-75 CNS
IGROV1 ovarian = test system: IGROV1 ovarian
NCI-H23 lung = test system: NCI-H23 lung
OVCAR-3 ovarian = test system: OVCAR-3 ovarian
CCRF-CEM leukemia = test system: CCRF-CEM leukemia
A549 NSCLC = test system: A549 NSCLC
UO-31 renal = test system: UO-31 renal
OVCAR-4 ovarian = test system: OVCAR-4 ovarian
COLO 205 colon = test system: COLO 205 colon
NCI-H460 lung = test system: NCI-H460 lung
SF-268 CNS = test system: SF-268 CNS
DU-145 prostate = test system: DU-145 prostate
MOLT-4 leukemia = test system: MOLT-4 leukemia
RXF 393 renal = test system: RXF 393 renal
SK-MEL-2 melanoma = test system: SK-MEL-2 melanoma
SNB-19 CNS = test system: SNB-19 CNS
UACC-257 melanoma = test system: UACC-257 melanoma
A498 renal = test system: A498 renal
SK-MEL-5 melanoma = test system: SK-MEL-5 melanoma
TK-10 renal = test system: TK-10 renal
HOP-62 NSCLC = test system: HOP-62 NSCLC
ACHN renal = test system: ACHN renal
MDA-MB-435 = test system: MDA-MB-435
KM12 colon = test system: KM12 colon
SR leukemia = test system: SR leukemia
MDA-MB-231 breast = test system: MDA-MB-231 breast
SW-620 colon = test system: SW-620 colon
HT29 colon = test system: HT29 colon
MALME-3M melanoma = test system: MALME-3M melanoma

N#C/C(=C1C=C/C(=N/O)C(Cl)=C/1)c1ccc(Cl)cc1
GI50 (HOP-92 NSCLC): 7.92 µM | TGI (HOP-92 NSCLC): 51.1 µM | GI50 (HCT-116 colon): 1.82 µM | TGI (HCT-116 colon): 4.39 µM | GI50 (HL-60(TB) leukemia): 1.24 µM | TGI (HL-60(TB) leukemia): 5 µM | GI50 (U251 CNS): 5.7 µM | TGI (U251 CNS): 20 µM | GI50 (SF-539 CNS): 3.16 µM | TGI (SF-539 CNS): 11.9 µM | GI50 (EKVX NSCLC): 10.4 µM | TGI (EKVX NSCLC): 59.2 µM | GI50 (SK-MEL-28 melanoma): 30.1 µM | TGI (SK-MEL-28 melanoma): > 100 µM | GI50 (LOX IMVI melanoma): 2.62 µM | TGI (LOX IMVI melanoma): 10.3 µM | GI50 (NCI-H226 lung): 7.59 µM | TGI (NCI-H226 lung): 27.3 µM | GI50 (CAKI-1 renal): 3.63 µM | TGI (CAKI-1 renal): 14.1 µM | GI50 (HCC-2998 colon): 19.1 µM | TGI (HCC-2998 colon): 38.4 µM | GI50 (HS 578T breast): 6.65 µM | TGI (HS 578T breast): 44.3 µM | GI50 (M14 melanoma): 11.5 µM | TGI (M14 melanoma): 31.6 µM | GI50 (MCF7 breast): 2.42 µM | TGI (MCF7 breast): 8.89 µM | GI50 (NCI/ADR-RES ovarian): 4.7 µM | TGI (NCI/ADR-RES ovarian): 26.1 µM | GI50 (HCT-15 colon): 6.67 µM | TGI (HCT-15 colon): 77.7 µM | GI50 (SF-295 CNS): 4.08 µM | TGI (SF-295 CNS): 14.4 µM | GI50 (UACC-62 melanoma): 4.01 µM | TGI (UACC-62 melanoma): 18 µM | GI50 (OVCAR-5 ovarian): 12.7 µM | TGI (OVCAR-5 ovarian): 43.4 µM | GI50 (NCI-H522 lung): 4.12 µM | TGI (NCI-H522 lung): 15.7 µM | GI50 (SN12C renal): 2.99 µM | TGI (SN12C renal): 8.02 µM | GI50 (SK-OV-3 ovarian): 15.7 µM | TGI (SK-OV-3 ovarian): 41.6 µM | GI50 (PC-3 prostate): 4.99 µM | TGI (PC-3 prostate): 71.1 µM | GI50 (786-0 renal): 5.16 µM | TGI (786-0 renal): 19.1 µM | GI50 (OVCAR-8 ovarian): 12.3 µM | TGI (OVCAR-8 ovarian): 51.9 µM | GI50 (K-562 leukemia): 1.16 µM | TGI (K-562 leukemia): 8.51 µM | GI50 (RPMI-8226 leukemia): 1.61 µM | TGI (RPMI-8226 leukemia): 11.8 µM | GI50 (SNB-75 CNS): 3.78 µM | TGI (SNB-75 CNS): 18.4 µM | GI50 (IGROV1 ovarian): 2.66 µM | TGI (IGROV1 ovarian): 7.89 µM | GI50 (NCI-H23 lung): 25.9 µM | TGI (NCI-H23 lung): > 100 µM | GI50 (OVCAR-3 ovarian): 3.97 µM | TGI (OVCAR-3 ovarian): 13.7 µM | GI50 (CCRF-CEM leukemia): 1.96 µM | TGI (CCRF-CEM leukemia): 6.93 µM | GI50 (A549 NSCLC): 15.6 µM | TGI (A549 NSCLC): 46.4 µM | GI50 (UO-31 renal): 3.33 µM | TGI (UO-31 renal): 13 µM | GI50 (OVCAR-4 ovarian): 17 µM | TGI (OVCAR-4 ovarian): 91.2 µM | GI50 (COLO 205 colon): 12.2 µM | TGI (COLO 205 colon): 31.1 µM | GI50 (NCI-H460 lung): 3.8 µM | TGI (NCI-H460 lung): 15.2 µM | GI50 (SF-268 CNS): 3.66 µM | TGI (SF-268 CNS): 14.7 µM | GI50 (DU-145 prostate): 1.98 µM | TGI (DU-145 prostate): 4.1 µM | GI50 (MOLT-4 leukemia): 2.35 µM | TGI (MOLT-4 leukemia): 7.65 µM | GI50 (RXF 393 renal): 13.5 µM | TGI (RXF 393 renal): 36.1 µM | GI50 (SK-MEL-2 melanoma): 7.8 µM | TGI (SK-MEL-2 melanoma): 24.8 µM | GI50 (SNB-19 CNS): 18.4 µM | TGI (SNB-19 CNS): > 100 µM | GI50 (UACC-257 melanoma): 21.2 µM | TGI (UACC-257 melanoma): > 100 µM | GI50 (A498 renal): 3.07 µM | TGI (A498 renal): 20.4 µM | GI50 (SK-MEL-5 melanoma): 16.5 µM | TGI (SK-MEL-5 melanoma): 40.3 µM | GI50 (TK-10 renal): 5.25 µM | TGI (TK-10 renal): 20.2 µM | GI50 (HOP-62 NSCLC): 4.29 µM | TGI (HOP-62 NSCLC): 19.1 µM | GI50 (ACHN renal): 4.47 µM | TGI (ACHN renal): 18.4 µM | GI50 (MDA-MB-435): 1.96 µM | TGI (MDA-MB-435): 8.45 µM | GI50 (KM12 colon): 0.721 µM | TGI (KM12 colon): 10.1 µM | GI50 (SR leukemia): 1.36 µM | TGI (SR leukemia): 4.05 µM | GI50 (MDA-MB-231 breast): 7.24 µM | TGI (MDA-MB-231 breast): 23.4 µM | GI50 (SW-620 colon): 3.79 µM | TGI (SW-620 colon): 15.1 µM | GI50 (HT29 colon): 5.46 µM | TGI (HT29 colon): 19.8 µM | GI50 (MALME-3M melanoma): 12.2 µM | TGI (MALME-3M melanoma): 29.3 µM
